Measurements reported in patent US20180305329A1, “XANTHINE COMPOUND AND USE THEREOF” (SUMITOMO CHEMICAL COMPANY, LIMITED, priority 2015, published 2018).

Experiments:
[1] = Spectroscopic properties: quantum efficiency (QE-1100); format: physicochemical; conditions: fluorescence
Description: Quantum Efficiency (QE): QE-1100 (Otsuka Electronics Co., Ltd.)

[2] = molecular target: T1, rat CYP3A2 (Rattus norvegicus, UniProt P05183); experiment: Metabolism test with recombinant CYP microsomes (molecular species selectivity); format: in vitro ADME; conditions: rat CYP3A2 Supersomes, CYP 2 pmol; 3 μM compound (2); 1 mM NADPH; pH 7.4; 37° C., 20 minutes; mean ± SD
T1 construct: purchased Nippon BD (BD Supersomes); host or cells: recombinant insect cells (microsomes)
T1 sequence (P05183 1-504): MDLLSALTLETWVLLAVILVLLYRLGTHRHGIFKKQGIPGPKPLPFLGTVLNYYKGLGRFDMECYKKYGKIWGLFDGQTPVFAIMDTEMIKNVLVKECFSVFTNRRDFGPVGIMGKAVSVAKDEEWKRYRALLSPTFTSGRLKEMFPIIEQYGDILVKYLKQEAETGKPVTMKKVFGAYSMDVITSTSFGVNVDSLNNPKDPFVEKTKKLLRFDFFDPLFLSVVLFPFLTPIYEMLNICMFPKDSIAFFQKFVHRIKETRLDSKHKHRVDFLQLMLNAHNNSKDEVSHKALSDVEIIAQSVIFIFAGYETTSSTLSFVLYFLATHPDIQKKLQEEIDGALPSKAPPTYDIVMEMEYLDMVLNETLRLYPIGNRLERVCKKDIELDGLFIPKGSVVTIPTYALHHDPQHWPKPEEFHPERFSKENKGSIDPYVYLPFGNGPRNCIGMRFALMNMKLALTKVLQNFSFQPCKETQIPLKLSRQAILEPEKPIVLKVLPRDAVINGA
Protocol: (§1) A 100 mM phosphate buffer solution (pH 7.4) containing 3 μM of the compound (2) synthesized according to Example 2, 1 mM of NADPH (Wako Pure Chemical Industries, Ltd.) and 0.1% of DMSO was prepared. In each of the wells of a 96-well plate, 2 μL of each microsome from recombinant insect cell expressing different type of molecular species of CYP (CYP 2 pmol, BD Supersomes™, Nippon BD) was placed, followed by addition of 198 μL of the above-described phosphate buffer solution to start the reaction, which was incubated at 37° C. for 20 minutes. The reaction was stopped by adding 100 μL of acetonitrile (Nacalai Tesque, Inc.), and the fluorescence intensity of the obtained reaction solution was measured at the fluorescence wavelength of 520 nm with an excitation wavelength of 482 nm. A calibration curve was prepared by using the 0 μM, 0.01 μM, 0.05 μM, 0.1 μM, 0.50 μM and 1 μM solutions (100 mM phosphate buffer/acetonitrile=2/1) of the compound (1).

[3] = molecular target: T2, human CYP2E1 (Homo sapiens, UniProt P05181); experiment: as above; format: in vitro ADME; conditions: human CYP2E1 Supersomes, CYP 2 pmol; 3 μM compound (2); 1 mM NADPH; pH 7.4; 37° C., 20 minutes; mean ± SD
T2 construct: purchased Nippon BD (BD Supersomes); host or cells: recombinant insect cells (microsomes)
Protocol: as §1

[4] = molecular target: T3, rat CYP2D1 (Rattus norvegicus, UniProt P10633); experiment: as above; format: in vitro ADME; conditions: rat CYP2D1 Supersomes, CYP 2 pmol; 3 μM compound (2); 1 mM NADPH; pH 7.4; 37° C., 20 minutes; mean ± SD
T3 construct: purchased Nippon BD (BD Supersomes); host or cells: recombinant insect cells (microsomes)
T3 sequence (P10633 1-504): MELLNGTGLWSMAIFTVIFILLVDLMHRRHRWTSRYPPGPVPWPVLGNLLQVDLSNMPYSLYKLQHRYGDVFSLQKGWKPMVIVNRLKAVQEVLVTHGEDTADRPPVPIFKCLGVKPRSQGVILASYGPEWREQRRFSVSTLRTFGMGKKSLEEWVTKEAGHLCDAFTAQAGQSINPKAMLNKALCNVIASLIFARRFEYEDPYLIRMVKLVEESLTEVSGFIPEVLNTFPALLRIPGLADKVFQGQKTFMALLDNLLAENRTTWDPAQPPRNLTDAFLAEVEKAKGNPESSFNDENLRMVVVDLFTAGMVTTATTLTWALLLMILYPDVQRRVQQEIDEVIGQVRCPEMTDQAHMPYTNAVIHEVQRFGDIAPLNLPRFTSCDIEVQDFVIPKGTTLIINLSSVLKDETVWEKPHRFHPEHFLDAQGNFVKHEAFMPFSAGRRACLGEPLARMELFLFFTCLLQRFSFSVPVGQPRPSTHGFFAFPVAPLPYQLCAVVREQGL
Protocol: as §1

[5] = molecular target: T4, human CYP3A4 (Homo sapiens, UniProt P08684); experiment: as above; format: in vitro ADME; conditions: human CYP3A4 Supersomes, CYP 2 pmol; 3 μM compound (2); 1 mM NADPH; pH 7.4; 37° C., 20 minutes; mean ± SD
T4 construct: purchased Nippon BD (BD Supersomes); host or cells: recombinant insect cells (microsomes)
Protocol: as §1

[6] = molecular target: T5, rat CYP3A1 (Rattus norvegicus, UniProt P04800); experiment: as above; format: in vitro ADME; conditions: rat CYP3A1 Supersomes, CYP 2 pmol; 3 μM compound (2); 1 mM NADPH; pH 7.4; 37° C., 20 minutes; mean ± SD
T5 construct: purchased Nippon BD (BD Supersomes); host or cells: recombinant insect cells (microsomes)
T5 sequence (P04800 1-504): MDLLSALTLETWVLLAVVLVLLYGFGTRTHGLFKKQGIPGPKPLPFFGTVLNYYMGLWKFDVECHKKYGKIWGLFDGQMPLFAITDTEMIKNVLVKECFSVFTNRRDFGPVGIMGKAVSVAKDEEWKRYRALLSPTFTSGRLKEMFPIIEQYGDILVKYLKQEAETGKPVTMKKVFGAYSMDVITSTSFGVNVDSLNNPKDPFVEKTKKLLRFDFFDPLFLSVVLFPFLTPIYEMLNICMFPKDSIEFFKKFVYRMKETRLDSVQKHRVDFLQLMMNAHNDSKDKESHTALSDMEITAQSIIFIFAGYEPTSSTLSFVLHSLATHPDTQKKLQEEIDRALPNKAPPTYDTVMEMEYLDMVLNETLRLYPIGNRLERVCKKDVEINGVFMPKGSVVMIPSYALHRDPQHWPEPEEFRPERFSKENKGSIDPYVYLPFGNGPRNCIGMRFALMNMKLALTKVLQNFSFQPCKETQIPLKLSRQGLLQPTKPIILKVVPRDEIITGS
Protocol: as §1

[7] = tested on: human and rat CYP3A; experiment: Molecular species selectivity evaluation, overall conclusion; format: in vitro ADME; conditions: conclusion from Tables 2 and 3
Protocol: as §1

T4 sequence (P08684 whole entry): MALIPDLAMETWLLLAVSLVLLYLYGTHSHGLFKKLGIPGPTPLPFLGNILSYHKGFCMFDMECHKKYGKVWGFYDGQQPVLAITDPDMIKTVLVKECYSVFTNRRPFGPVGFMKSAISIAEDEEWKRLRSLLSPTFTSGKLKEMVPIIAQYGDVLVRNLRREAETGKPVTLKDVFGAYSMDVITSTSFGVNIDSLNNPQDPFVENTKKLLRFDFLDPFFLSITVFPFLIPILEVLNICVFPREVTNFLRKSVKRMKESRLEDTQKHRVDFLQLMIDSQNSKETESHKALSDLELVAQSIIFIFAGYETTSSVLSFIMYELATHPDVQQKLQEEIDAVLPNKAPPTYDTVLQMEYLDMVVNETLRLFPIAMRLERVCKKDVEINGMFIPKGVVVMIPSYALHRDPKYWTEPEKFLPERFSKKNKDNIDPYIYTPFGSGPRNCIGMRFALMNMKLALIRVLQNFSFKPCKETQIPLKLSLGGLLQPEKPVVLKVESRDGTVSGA
T2 sequence (P05181 whole entry): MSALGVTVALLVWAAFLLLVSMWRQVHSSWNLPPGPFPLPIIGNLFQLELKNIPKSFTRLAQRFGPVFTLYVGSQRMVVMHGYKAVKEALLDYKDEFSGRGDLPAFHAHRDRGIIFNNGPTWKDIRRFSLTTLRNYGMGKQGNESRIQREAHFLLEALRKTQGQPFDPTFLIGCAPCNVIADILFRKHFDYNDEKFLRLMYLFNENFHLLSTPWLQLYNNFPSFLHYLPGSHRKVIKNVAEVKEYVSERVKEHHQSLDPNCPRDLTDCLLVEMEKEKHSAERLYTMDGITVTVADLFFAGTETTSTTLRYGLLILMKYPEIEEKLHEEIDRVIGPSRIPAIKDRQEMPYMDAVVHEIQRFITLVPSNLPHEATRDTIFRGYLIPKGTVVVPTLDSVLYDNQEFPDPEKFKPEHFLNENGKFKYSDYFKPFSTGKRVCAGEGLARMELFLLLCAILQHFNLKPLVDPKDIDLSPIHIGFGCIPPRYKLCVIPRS

COc1ccc(-c2c3ccc(=O)cc-3oc3cc(O)ccc23)c(C)c1 [Compound (1), 6-hydroxy-9-(4-methoxy-2-methylphenyl)-3H-xanthen-3-one]
Quantum Efficiency [1]: 85.3%

COc1ccc(-c2c3ccc(=O)cc-3oc3cc(OCc4cc(C(F)(F)F)ccc4C(F)(F)F)ccc23)c(C)c1 [Compound (2), 9-(4-methoxy-2-methylphenyl)-6-bis(2,5-trifluoromethyl)benzyloxy-3H-xanthen-3-one]
Quantum Efficiency [1]: 20.6% | amount of the compound (1) produced by reacting the compound (2) with CYP [2]: 0.0912 ± 0.0105 (3) pmol/min/mg protein | amount of the compound (1) produced by reacting the compound (2) with CYP [3]: 0.0038 ± 0.0052 (3) pmol/min/mg protein | amount of the compound (1) produced by reacting the compound (2) with CYP [4]: 0.0151 ± 0.0081 (3) pmol/min/mg protein | amount of the compound (1) produced by reacting the compound (2) with CYP [5]: 2.4913 ± 0.0497 (3) pmol/min/mg protein | amount of the compound (1) produced by reacting the compound (2) with CYP [6]: 0.2190 ± 0.0095 (3) pmol/min/mg protein | CYP molecular species selectivity as substrate [7]: substrate specific to human and rat CYP3A
